Source: PubChem BioAssay AID720589 (Broad Institute, 2013)
Active and inactive are the calls of the source.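 How the source made its calls: active means fitted curve drops below -35% activity at a concentration within twice the top valid tested dose; inconclusive means no clear call, values can overlap the other calls; inactive means signal rising instead of falling, among other cases.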

Test: ATP-based viability loss in HepG2 cells – cell-based, CellTiter-Glo luminescence, cherry-pick, set 3, cytotoxicity control, dose response (AID 720589)
Details: HepG2 viability, ATP luminescence (CellTiter-Glo), 72 h; at 0.011 µM; hits give low values; 0% = untreated, negative = ATP loss

| SMILES | max activity |
| --- | --- |
| CCN1C/C(=C/c2ccc(OC)c(O)c2)C(=O)/C(=C/c2ccc(OC)c(O)c2)C1 | -39.6% (inactive) |
| COc1ccc(N=C2C(=O)Nc3ccc(C)c(Br)c32)cc1 | 23.9% (inactive) |
| COc1ccc(NC(=O)N(C)[C@H]2C[C@H]3c4[nH]c5ccccc5c4CCN3C(=O)[C@H]2CO)cc1 | -20.5% (inactive) |
| Cc1cc(C(=O)NNC(=O)c2ccc(S(=O)(=O)N(C)C)cc2)c(C)o1 | 20% (inactive) |
| COC(=O)c1c(C)[nH]c(/C=N/Nc2ccccc2)c1C | -17.5% (inactive) |
| CCS(=O)(=O)N1Cc2ccccc2CC1C(=O)Nc1nnc(SCc2ccc(C#N)cc2)s1 (configuration not stated) | 21.9% (inactive) |
| COc1ccccc1NS(=O)(=O)c1cc(NC(=O)c2cc3ccccc3oc2=O)ccc1C | -20.4% (inactive) |
| CN(C)[C@@H]1CCC[C@@H]1OC(=O)C(c1ccccc1)c1ccccc1 | 32.6% (inactive) |
| COc1ccc(NS(=O)(=O)c2cc(NC(=O)CNC(=O)c3cccc(OC)c3)ccc2C)cc1 | -35% (inactive) |
| COc1ccc(C=NNc2nc3ccccc3s2)cc1 | -25.7% (inactive) |
| COC(=O)C[C@H]1CC[C@H]2[C@H](COc3ccc(NC(=O)Nc4cccc(Cl)c4)cc3C(=O)N2C)O1 | -21.5% (inactive) |

Same assay, conditions: HepG2 viability, ATP luminescence (CellTiter-Glo), 72 h; at 0.035 µM; hits give low values; 0% = untreated, negative = ATP loss

| SMILES | max activity |
| --- | --- |
| O=C(O)c1ccccc1C(=O)Nc1ccc(Oc2cccc3ccccc23)cc1 | -12.6% (inactive) |
| CCCn1c(C)cc(C(=O)CN2C(=O)c3ccccc3S2(=O)=O)c1C | 5.3% (inactive) |
| S=C(NCCN1CCOCC1)Nc1ccccc1Cl | -36.4% (inactive) |
| CCOC(=O)Cc1ccc(NC(=O)c2ccccc2Br)cc1 | -16.1% (inactive) |

Same assay, conditions: HepG2 viability, ATP luminescence (CellTiter-Glo), 72 h; at 0.1 µM; hits give low values; 0% = untreated, negative = ATP loss

| SMILES | max activity |
| --- | --- |
| COC(=O)Cc1ccc(NC(=O)c2ccccc2Cl)cc1 | -26.9% (inactive) |
| COC(=O)C[C@@H]1CC[C@@H]2[C@H](COc3ccc(NC(=O)Nc4cccc(C#N)c4)cc3C(=O)N2C)O1 | 28.5% (inactive) |
| CCOC(=O)C1CCCCN1C(=O)CCc1c(C)nc2cc(-c3ccccc3)nn2c1C (configuration not stated) | 21.3% (inactive) |
| Cc1sc2nc(CN3CCC(C)CC3)nc(Cl)c2c1C | 16.4% (inactive) |
| COC(=O)C(CC#Cc1ccc2c(c1)[C@]1(C(=O)N2)[C@H](c2ccc(OCCO)cc2)N2[C@H](c3ccccc3)[C@H](c3ccccc3)OC(=O)[C@H]2[C@@H]1C(=O)N1CCN(c2ncccn2)CC1)C(=O)OC | -11.5% (inactive) |
| C/C(=N\Nc1cccc2cccnc12)c1ccccn1 | -36.8% (inactive) |
| CN(C(=O)COC(=O)c1cc(-c2ccccc2Cl)nc2ccccc12)C1CCS(=O)(=O)C1 (configuration not stated) | -27.5% (inactive) |
| C[C@@H]1CN([C@@H](C)CO)S(=O)(=O)c2ccc(C#CCN(C)C)cc2O[C@@H]1CN(C)Cc1ccncc1 | -45% (inactive) |
| O=C(NCCc1ccccc1)c1ccccc1NC(=O)C1CCCO1 (configuration not stated) | -10.9% (inactive) |
| O=C(NC(=O)c1ccccc1)Nc1ccccc1 | -38.9% (inactive) |
| Cc1ccc(S(=O)(=O)N(C)C[C@@H]2Oc3cc(C#Cc4ccncc4)ccc3S(=O)(=O)N([C@@H](C)CO)C[C@H]2C)cc1 | -24.6% (inactive) |
| Cc1noc(C)c1NC(=O)Nc1ccc2c(c1)CC(=O)N([C@@H](C)CO)C[C@@H](C)[C@@H](CN(C)Cc1ccc(Cl)c(Cl)c1)O2 | 36.5% (inactive) |

Same assay, conditions: HepG2 viability, ATP luminescence (CellTiter-Glo), 72 h; at 0.3 µM; hits give low values; 0% = untreated, negative = ATP loss

| SMILES | max activity |
| --- | --- |
| COc1ccc(C2=Nn3c(nnc3-c3ccccc3F)SC2)cc1OC1CCOC1 (configuration not stated) | -28.9% (inactive) |
| COc1cc(/C=C/C(=O)/C=C(O)/C=C/c2ccc(O)c(OC)c2)ccc1O | -31.5% (inactive) |
| CCc1c(C(=O)NN2C(=O)C3CCCCC3C2=O)csc1C (configuration not stated) | -31.9% (inactive) |
| Cc1ccc(Cc2c(-c3ccco3)nc3c(C)cc(Br)cn23)cc1 | -46.1% (inactive) |
| O=C1c2ccccc2C(=O)N1CCCCNc1ccccc1 | -34.9% (inactive) |

Same assay, conditions: HepG2 viability, ATP luminescence (CellTiter-Glo), 72 h; at 0.9 µM; hits give low values; 0% = untreated, negative = ATP loss

| SMILES | max activity |
| --- | --- |
| CCc1ccc(/C=C2\SC(=S)N(CCCC(=O)Nc3cc(C)on3)C2=O)cc1 | -32.1% (inactive) |
| C[C@@H]1CN([C@H](C)CO)C(=O)c2cc(NC(=O)CCCCCC(=O)Nc3ccccc3N)ccc2O[C@H]1CN(C)S(=O)(=O)c1ccc(Cl)cc1 | -26.7% (inactive) |
| COc1ccc(/C=C2/SC(=S)N(CCCC(=O)Nc3ccccc3C(=O)O)C2=O)cc1 | -31.4% (inactive) |
| Brc1ccc(CSc2nnc(-c3ccco3)o2)cc1 | -28.4% (inactive) |
| C[C@@H]1CN([C@H](C)CO)C(=O)c2cc(NC(=O)CCCCCC(=O)Nc3ccccc3N)ccc2O[C@@H]1CN(C)Cc1ccc(Cl)c(Cl)c1 | 13.5% (inactive) |
